Source: US8557811B2, “Dual-color imaging method of sodium/calcium activities using two-photon fluorescent probes and preparation method of two-photon fluorescent probes” (Ajou University Industry—Academic Cooperation Foundation, priority 2010, dated 2013)
Several values for one entry are separate records, joined by “and”; a condition that tells them apart may be missing. Identical values can stand only once.

Assays:
[1] = in MeOH; cited from earlier work
[2] = Fluorescence titration with free Ca2+ in MOPS buffer (one-photon and two-photon); type: binding
Description: This is caused by the blocking of photo-induced electron transfer (PET) resulting from complexation with the metal ions.
One-photon absorption curves of 1 μM BCa1 (30 mM MOPS, 100 mM KCl, pH 7.2) complex in the presence of free Ca^2+ are shown in FIG. 5 (a), one-photon and two-photon fluorescence titration curves are shown in FIG. 5 (b), and one-photon and two-photon Hill curves are shown in FIG. 5 (c).
The dissociation constants of BCa1 for the one-photon and two-photon processes (K^OPd and K^TPd) were calculated from the fluorescence titration curves of FIG. 5 (b).

[3] = One-photon fluorescence of BCa1 with free Ca2+ in LUVs; type: binding; conditions: LUVs of DOPC/sphingomyelin/CHL (1:1:1, raft mixture), free Ca2+ 2.5 mM, 25±0.5° C.
Description: LUVs for the measurement of one-photon and two-photon spectra were prepared from a hydrated suspension of multilamellar vesicles by means of extrusion. Lipids were dissolved in CHCl3/MeOH (95/5 vol %) and then dried under N2 flow in vacuum. The resulting film was hydrated in MOPS buffer (30 mM MOPS, 100 mM KCl, pH 7.2) by shaking at 60° C. until the suspension became homogeneous. The mixture was subjected to 3 freeze-thaw cycles, and LUVs were extruded therefrom by passing through a membrane having 100 nm pores (Avanti Polar Lipids). To stain the vesicles, BCa1 dissolved in DMSO was added and then 30 minutes was allowed to pass. The proportion of the vesicles to the probe was 300:1. Temperature was measured using a digital thermometer having a precision of 0.1° C.
One-photon fluorescence spectra of complexes of free Ca^2+ (0 to 2.5 mM) and 1 μM BCa1 for LUVs composed of DOPC/sphingomyelin/cholesterol (1:1:1, raft mixture) are shown in FIG. 8 (a), and Hill curves are shown in FIG. 8 (b).
Normalized emission spectra of BCa1 containing free Ca^2+ (2.5 mM) in LUVs composed of DPPC/CHL (black curve), DOPC/sphingomyelin/CHL (1:1:1, raft mixture, blue curve) and DOPC (pink curve) at 25±0.5° C. are shown in FIG. 9 (a), and normalized emission spectra of BCa1 in HeLa cells are shown in FIG. 9 (b). […]

[4] = Relative fluorescence intensity for various cations; conditions: 1 μM BCa1
Description: (§1) Relative fluorescence intensity of 1 μM BCa1 for various cations are shown in FIG. 6 (a), and the effect of pH on one-photon fluorescence intensity of BCa1 is shown in FIG. 6 (b). […] Thus, the probe allows selective detection of Ca^2+ without minimized interference from other biologically relevant cations.

[5] = Two-photon measurement in BCa1-labeled HeLa cells; type: cell-based
Description: HeLa cells were cultured in Dulbecco's modified Eagle's medium (DMEM; Gibco) supplemented with heat-inactivated 10% (v/v) fetal bovine serum (FBS; Gibco), 100 units/mL penicillin and 100 μg/mL streptomycin. The cells were grown under a humidified environment at 37° C. with air/CO2=95:5. Four days before imaging, the cells were harvested with a trypsin-EDTA solution and were transferred to a glass-bottomed dish (MatTek) with […]. The cells were treated at 37° C. for 20 minutes with 2 μM ANa1, and then loaded with 0.5 μM BCa1 at room temperature. 10 minutes later, the cells were imaged after washing 2 times with a reduced calcium-balanced salt solution (RCBSS; 127 mM NaCl, 3.8 mM KCl, 1.2 mM KH2PO4, 0.8 mM MgCl2, 5 mM glucose and 10 mM HEPES buffer).
Two-photon fluorescence microscopic images of the probe-labeled HeLa cells and tissues were obtained using spectral confocal and multiphoton microscopes (Leica TCS SP2).

[6] = Spectroscopic measurements (absorption, emission, fluorescence quantum yield); type: physicochemical; conditions: for Φ fluorescence photon efficiency: error range ±10%
Description: Absorption spectra were measured using a Hewlett-Packard 8453 diode array spectrophotometer, and fluorescence spectra were measured using an Amico-Bowman series 2 emission spectrometer having 1 cm standard quartz cell. Fluorescence quantum yield was determined using coumarin 307 (Φ=0.95 in MeOH) according to a previously known method.
Normalized absorption spectra of BCa1 in 1,4-dioxane, EtOH, DMF and H2O are shown in FIG. 2 (a), and normalized emission spectra of BCa1 in 1,4-dioxane, EtOH, DMF and H2O are shown in FIG. 2 (b).

[7] = Two-photon absorption cross section by femtosecond fluorescence spectroscopy; type: physicochemical; conditions: for λ^(2)max two-photon excitation wavelength: with cation (BCa1 + Ca2+, ANa1 + Na+); for δΦ two-photon operational cross section: with cation (BCa1: MOPS buffer with excess Ca2+; ANa1 + Na+), error range ±15%
Description: Two-photon operational emission δΦ of BCa1 in the MOPS buffer containing excess Ca^2+ was 150 GM at 780 nm, 3- to 5-fold improved over Calcium-Green-Ca^2+ or Fura-2-Ca^2+ (see FIG. 7). Thus, it can be seen that staining of cells with BCa1 can provide brighter TPM images as compared to other commercially available probes.
TPA cross section (6) was measured by femtosecond (fs) fluorescence spectroscopy. BCa1 was dissolved in 30 mM MOPS buffer (2.5 mM CaCl2, 100 mM KCl, pH 7.2) to a concentration of 5.0×10^−6 M, and two-photon excited fluorescence (TPEF) was measured at 740 to 940 nm using fluorescein (8.0×10^−6M, pH=11). TPEF intensity of reference and sample was determined at the same excitation wavelength. TPA cross section was calculated by Equation 1. δ=δr(Ssφrfrcr)/(Srφsfscs) [Equation 1]
In Equation 1, s and r respectively stand for sample and reference molecules, S represents the intensity of a signal collected by the CCD detector, Φ represents the fluorescence quantum yield, f represents the overall fluorescence collection efficiency of the experimental apparatus, c represents molecular density in the solution, and δr represents the TPA cross section of reference molecules.

[8] = Effect of pH on one-photon fluorescence intensity; type: physicochemical
Description: as §1

[9] = Water solubility from fluorescence intensity versus dye concentration; type: physicochemical; conditions: H2O with DMSO at 0.20; highest concentration in the linear region; excitation 360 nm
Description: A stock solution (1.0×10^−2M) was prepared by dissolving the dye (BCa1) in DMSO. The solution was diluted (to 6.0×10^−3 to 6.0×10^−5 M) and transferred to a cuvette holding H2O (3.0 mL) using a microsyringe. In all cases, the concentration of DMSO in H2O was maintained at 0.20. […] The highest concentration in the linear region was determined as the solubility of BCa1, which was about 5.0 μM in water, being sufficient to stain cells.
One-photon fluorescence spectra of BCa1 are shown in FIG. 1 (a), and the fluorescence intensity of BCa1 in H2O depending on concentrations is shown in FIG. 1 (b). Excitation wavelength was 360 nm.

[10] = Fluorescence response of ANa1 to Na+ in buffer; type: binding
[11] = two-photon process (value in parentheses)
[12] = with cation (BCa1 + Ca2+, ANa1 + Na+)

Structure (SMILES) | Φ fluorescence quantum yield of the reference [1] | FEF fluorescence enhancement factor (F − Fmin)/Fmin ([2]; one-photon process) | FEF fluorescence enhancement factor (F − Fmin)/Fmin [2, 11] | maximum emissions of the two Gaussian curves fitted to the emission spectrum [3] | fluorescence response to Fe^2+, Cu^2+ and Co^2+ [4] | fluorescence response to Mg^2+, Zn^2+ and Mn^2+ [4] | maximum emissions of the two Gaussian curves fitted to the emission spectrum [5] | λ^(1)max one-photon absorption wavelength ([6]; probe without added cation) | λ^flmax one-photon emission wavelength ([6]; probe without added cation) | Φ fluorescence photon efficiency ([6]; probe without added cation) | λ^(1)max one-photon absorption wavelength [6, 12] | λ^flmax one-photon emission wavelength [6, 12] | Φ fluorescence photon efficiency [6, 12] | λ^(2)max two-photon excitation wavelength [7] | δΦ two-photon operational cross section [7] | effect of pH on one-photon fluorescence intensity [8] | solubility of BCa1 in water [9] | FEF fluorescence enhancement factor (F − Fmin)/Fmin ([10]; one-photon process) | FEF fluorescence enhancement factor (F − Fmin)/Fmin [10, 11]
CCNc1cc2oc(=O)cc(C(F)(F)F)c2cc1C [coumarin 307] | 0.95 | – | – | – | – | – | – | – | – | – | – | – | – | – | – | – | – | – | –
CN(CC(=O)Nc1ccc(N(CC(=O)O)CC(=O)O)c(OCC(=O)N2CCOCC2)c1)c1ccc2cc(-c3nc4ccccc4o3)ccc2c1 [BCa1] | – | 13 | 14 | 436 nm and 467 nm | no response at all | weak responses | 430 nm and 460 nm | 360 nm | 470 nm | 0.07 | 360 nm | 470 nm | 0.98 | 780 nm | 150 GM | not affected by pH | about 5.0 μM | – | –
COc1ccccc1N1CCOCCOCCN(c2ccc(NC(=O)CN(C)c3ccc4cc(C(C)=O)ccc4c3)cc2OC)CCOCC1 [ANa1, reference compound] | – | – | – | – | – | – | – | 367 nm | 500 nm | 0.08 | 367 nm | 500 nm | 0.65 | 780 nm | 95 GM | – | – | 8(8) | 8(8)
